Test results: US10906873B2, “Substituted cyclic amides as herbicides” (FMC Corporation, priority 2015, dated 2021)

Experiments:
rice (Oryza sativa) = experiment: Test B flooded paddy test, rice; format: in vivo; conditions: Flood, scale of 0 to 100 where 0 is no effect and 100 is complete control, 13 to 15 d
Summary of the method: (§1)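 Plants at the 2-leaf stage were flooded to 3 cm above soil, and test compounds were applied directly into the paddy water, which was held at that depth throughout. After 13 to 15 d in a greenhouse, injury was rated visually against untreated controls on a 0–100 scale (0 no effect, 100 complete control).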

[1] = test system: ducksalad (Heteranthera limosa); experiment: Test B flooded paddy test, ducksalad; format: in vivo; conditions: Flood, scale of 0 to 100 where 0 is no effect and 100 is complete control, 13 to 15 d
Summary of the method: as §1

[2] = test system: barnyardgrass (Echinochloa crus-galli); experiment: Test A postemergence, barnyardgrass; format: in vivo; conditions: 1000 g ai/ha, 0 to 100 scale (0 no effect, 100 complete control)
Summary of the method: (§2)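 Scores run from 0, no effect, to 100, complete control, assigned visually after roughly 10 d in the greenhouse. Preemergence treatment is a directed spray onto sown loam–sand soil; postemergence treatment targets plants 2 to 10 cm tall.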

[3] = test system: foxtail, giant (giant foxtail, Setaria faberii); experiment: Test A postemergence, foxtail, giant; format: in vivo; conditions: 1000 g ai/ha, 0 to 100 scale
Summary of the method: as §2

[4] = test system: velvetleaf (Abutilon theophrasti); experiment: Test A preemergence, velvetleaf; format: in vivo; conditions: 1000 g ai/ha, 0 to 100 scale
Excerpt: (§3) Seeds of plant species selected from barnyardgrass (Echinochloa crus-galli), crabgrass (large crabgrass, Digitaria sanguinalis), kochia (Kochia scoparia), ragweed (common ragweed, Ambrosia elatior), morningglory (Ipomoea spp.), velvetleaf (Abutilon theophrasti), ryegrass, It. (Italian ryegrass, Lolium multiflorum), foxtail, giant (giant foxtail, Setaria faberii), wheat (Triticum aestivum), corn (Zea mays), and pigweed (Amaranthus retroflexus), were planted into a blend of loam soil and sand and treated preemergence with a directed soil spray using test chemicals formulated in a non-phytotoxic solvent mixture which included a surfactant. At the same time, plants selected from these crop and weed species and also blackgrass (Alopecurus myosuroides), and galium (catchweed bedstraw, Galium aparine), were planted in pots containing the same blend of loam soil and sand and treated with postemergence applications of test chemicals formulated in the same manner. Plants ranged in height from 2 to 10 cm and were in the one- to two-leaf stage for the postemergence treatment. Treated plants and untreated controls were maintained in a greenhouse for approximately 10 d, after which time all treated plants were compared to untreated controls and visually evaluated for injury. Plant response ratings, summarized in Table A, are based on a 0 to 100 scale where 0 is no effect and 100 is complete control. A dash (-) response means no test result.

[5] = test system: morningglory (Ipomoea spp.); experiment: Test A postemergence, morningglory; format: in vivo; conditions: 1000 g ai/ha, 0 to 100 scale
Excerpt: as §3

[6] = test system: wheat (Triticum aestivum); experiment: Test A postemergence, wheat; format: in vivo; conditions: 1000 g ai/ha, 0 to 100 scale
Summary of the method: as §2

[7] = test system: morningglory (Ipomoea spp.); experiment: Test A preemergence, morningglory; format: in vivo; conditions: 1000 g ai/ha, 0 to 100 scale
Excerpt: as §3

corn (Zea mays) [8] = experiment: Test A postemergence, corn; format: in vivo; conditions: 1000 g ai/ha, 0 to 100 scale
Summary of the method: as §2

[9] = test system: crabgrass (large crabgrass, Digitaria sanguinalis); experiment: Test A postemergence, crabgrass; format: in vivo; conditions: 1000 g ai/ha, 0 to 100 scale
Excerpt: as §3

[10] = test system: pigweed (Amaranthus retroflexus); experiment: Test A postemergence, pigweed; format: in vivo; conditions: 1000 g ai/ha, 0 to 100 scale
Summary of the method: as §2

corn (Zea mays) [11] = experiment: Test A preemergence, corn; format: in vivo; conditions: 1000 g ai/ha, 0 to 100 scale
Excerpt: as §3

[12] = test system: sedge, umbrella (small-flower umbrella sedge, Cyperus difformis); experiment: Test B flooded paddy test, sedge, umbrella; format: in vivo; conditions: Flood, scale of 0 to 100 where 0 is no effect and 100 is complete control, 13 to 15 d
Summary of the method: as §1

[13] = test system: crabgrass (large crabgrass, Digitaria sanguinalis); experiment: Test A preemergence, crabgrass; format: in vivo; conditions: 1000 g ai/ha, 0 to 100 scale
Excerpt: as §3

[14] = test system: wheat (Triticum aestivum); experiment: Test A preemergence, wheat; format: in vivo; conditions: 1000 g ai/ha, 0 to 100 scale
Excerpt: as §3

[15] = test system: barnyardgrass (Echinochloa crus-galli); experiment: Test B flooded paddy test, barnyardgrass; format: in vivo; conditions: Flood, scale of 0 to 100 where 0 is no effect and 100 is complete control, 13 to 15 d
Summary of the method: as §1

[16] = test system: foxtail, giant (giant foxtail, Setaria faberii); experiment: Test A preemergence, foxtail, giant; format: in vivo; conditions: 1000 g ai/ha, 0 to 100 scale
Summary of the method: as §2

[17] = test system: barnyardgrass (Echinochloa crus-galli); experiment: Test A preemergence, barnyardgrass; format: in vivo; conditions: 1000 g ai/ha, 0 to 100 scale
Summary of the method: as §2

[18] = test system: velvetleaf (Abutilon theophrasti); experiment: Test A postemergence, velvetleaf; format: in vivo; conditions: 1000 g ai/ha, 0 to 100 scale
Excerpt: as §3

[19] = test system: pigweed (Amaranthus retroflexus); experiment: Test A preemergence, pigweed; format: in vivo; conditions: 1000 g ai/ha, 0 to 100 scale
Summary of the method: as §2

Structure (SMILES) | Plant response rating, Rice (rice (Oryza sativa); 1000 g ai/ha) | Plant response rating, Ducksalad ([1]; 1000 g ai/ha) | Plant response rating, Barnyardgrass [2] | Plant response rating, Foxtail, Giant [3] | Plant response rating, Velvetleaf [4] | Plant response rating, Morningglory [5] | Plant response rating, Wheat [6] | Plant response rating, Morningglory [7] | Plant response rating, Corn (corn (Zea mays) [8]) | Plant response rating, Crabgrass [9] | Plant response rating, Pigweed [10] | Plant response rating, Corn (corn (Zea mays) [11]) | Plant response rating, Sedge, Umbrella ([12]; 1000 g ai/ha) | Plant response rating, Crabgrass [13] | Plant response rating, Wheat [14] | Plant response rating, Barnyardgrass ([15]; 1000 g ai/ha) | Plant response rating, Foxtail, Giant [16] | Plant response rating, Barnyardgrass [17] | Plant response rating, Velvetleaf [18] | Plant response rating, Pigweed [19] | other results
O=C1NCC(Cc2cccc(Cl)c2)C1C(=O)Nc1cccc(F)c1F (stereo not shown) [Compound 1, 4-[(3-chlorophenyl)methyl]-N-(2,3-difluorophenyl)-2-oxo-3-pyrrolidinecarboxamide] | 0 | 50 | 80 | 80 | 0 | 0 | 0 | 0 | 0 | 80 | 0 | 0 | 0 | 90 | 0 | 0 | 90 | 70 | 10 | 0 | melting point: 132 to 134 °C
O=C1NCC(Cc2cccc(Cl)c2)C1C(=O)Nc1ccccc1F (stereo not shown) [Compound 2] | 0 | 0 | 30 | 60 | 0 | 0 | 0 | 0 | 0 | 80 | 0 | 0 | 0 | 90 | 0 | 0 | 80 | 30 | 0 | 0 | –
O=C1NCC(Cc2ccccc2)C1C(=O)Nc1ccccc1F (stereo not shown) [Compound 3] | – | – | 0 | 0 | 0 | 0 | 0 | 0 | 0 | 0 | 0 | 0 | – | 0 | 0 | – | 0 | 0 | 0 | 0 | –
O=C1NCC(Cc2ccccc2)C1C(=O)Nc1cccc(F)c1F (stereo not shown) [Compound 4] | – | – | 0 | 0 | 0 | 0 | 0 | 0 | 0 | 20 | 0 | 0 | – | 60 | 0 | – | 0 | 0 | 0 | 0 | –
O=C1NCC(Cc2ccc(F)cc2)C1C(=O)Nc1cccc(F)c1F (stereo not shown) [Compound 13, N-(2,3-difluorophenyl)-4-[(4-fluorophenyl)methyl]-2-oxo-3-pyrrolidinecarboxamide] | – | – | 80 | 60 | 0 | 0 | 0 | 0 | 0 | 80 | 0 | 0 | – | 80 | 0 | – | 60 | 80 | 0 | 0 | Plant response rating, Rice (rice (Oryza sativa); 250 g ai/ha): 0; Plant response rating, Ducksalad ([1]; 250 g ai/ha): 0; Plant response rating, Sedge, Umbrella ([12]; 250 g ai/ha): 0; Plant response rating, Barnyardgrass ([15]; 250 g ai/ha): 0
O=C1NCC(Cc2ccc(F)cc2)C1C(=O)Nc1ccccc1F (stereo not shown) [Compound 14] | – | – | 0 | 0 | 0 | 0 | 0 | 0 | 0 | 20 | 0 | 0 | – | 80 | 0 | – | 30 | 20 | 0 | 0 | –
